{"source": "paper PMC7933701", "about": "(Biochemistry and Biophysics Reports, 2021)", "origin": "cited, not measured here", "system": "PSA", "conditions": "peptide carrier of doxorubicin prodrug", "data": [{"substance": "Mu-His-Ser-Ser-Lys-Leu-Gln-Leu", "values": [{"measurement": "hydrolysis by PSA (in words)", "result": "precisely hydrolysable by PSA"}]}]}
